Reference: patent US11884675B2, “Heterocyclic compounds as triggering receptor expressed on myeloid cells 2 agonists and methods of use” (AMGEN INC., priority 2020, dated 2024)

Target: hTREM2 (Homo sapiens, UniProt Q9NZC2)
Assay: TREM2 activity by cellular Syk phosphorylation (AlphaScreen/AlphaLISA) in TREM2/DAP12-HEK cells, used for Examples 1-305
Assay type: cell-based
Parameters: expressed in transfected cells
Conditions: HEK293 Cells
Procedure, shortened: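 Single-cell-cloned HEK293 cells overexpressing TREM2 and DAP12, seeded 20 h, exposed to test articles (1% final DMSO) for 45 min at room temperature. Lysates read for phospho-Syk (Tyr525/526) vs total Syk by AlphaScreen. Signal normalised as percent of control between isotype IgG and 100 nM anti-TREM2 antibody; 4-parameter logistic fit.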

Sequence of hTREM2 (Q9NZC2 19-230): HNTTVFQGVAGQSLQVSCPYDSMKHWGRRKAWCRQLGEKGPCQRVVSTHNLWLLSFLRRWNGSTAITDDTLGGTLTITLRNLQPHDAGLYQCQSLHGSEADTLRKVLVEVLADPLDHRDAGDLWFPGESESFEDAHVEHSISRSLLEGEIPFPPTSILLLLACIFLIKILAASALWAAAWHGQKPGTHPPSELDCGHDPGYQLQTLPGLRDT
Sequence of hTREM2 (O43914 22-113 partner): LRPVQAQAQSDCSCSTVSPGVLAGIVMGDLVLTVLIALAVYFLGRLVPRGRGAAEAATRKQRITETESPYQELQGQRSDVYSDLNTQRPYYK

EC50 [nM]	hTREM2 Emax	Structure (SMILES)
≤ 50	+++ (Emax>150 and ≤250)	Cc1nc2nc(N3CCO[C@@H](c4cnn(C)c4)C3)nc(C3CCC(F)(F)CC3)c2nc1C [Example 133, 4-(4,4-difluorocyclohexyl)-6,7-dimethyl-2-((2S)-2-(1-methyl-1H-pyrazol-4-yl)-4-morpholinyl)pteridine]
50 to 500	+++ (Emax>150 and ≤250)	Cc1cnc2c(-c3ccc(Cl)cc3F)cc([C@H]3CCO[C@@H](c4cnn(C)c4)C3)nc2n1 (single isomer, unassigned) [Example 185]
500 to 3000	+++ (Emax>150 and ≤250)	Cc1nc2nc([C@H]3CCO[C@H](c4cnn(C)c4)C3)nc(-c3ccc(F)cc3F)c2nc1C [Example 263, 4-(2,4-difluorophenyl)-6,7-dimethyl-2-((2S,4S)-2-(1-methyl-1H-pyrazol-4-yl)tetrahydro-2H-pyran-4-yl)pteridine]
3000 to 100000	+++ (Emax>150 and ≤250)	Cc1cnc2c(-c3ccc(F)cc3F)nc(N3CCO[C@H]([C@@H]4CCOC4)C3)nc2n1 [Example 253, (R)-4-(4-(2,4-difluorophenyl)-7-methylpteridin-2-yl)-2-((R)-tetrahydrofuran-3-yl)morpholine]
50 to 500	++++ (Emax>250)	Cc1cnc2cc(N3CCO[C@@H](c4cnn(C)c4)C3)nc(-c3ccc(Cl)cc3F)c2n1 [Example 74, 5-(4-chloro-2-fluorophenyl)-3-methyl-7-((2S)-2-(1-methyl-1H-pyrazol-4-yl)-4-morpholinyl)pyrido[3,4-b]pyrazine]
500 to 3000	+++ (Emax>150 and ≤250)	Cc1cnc2c(-c3ccc(Cl)cc3F)nc(N3CCO[C@H](c4cnc(C)nc4)C3)nc2n1 [Example 261, (R)-4-(4-(4-chloro-2-fluorophenyl)-7-methylpteridin-2-yl)-2-(2-methylpyrimidin-5-yl)morpholine]
50 to 500	++ (Emax>100 and ≤150)	Cc1ccc2c(C34CC(C(F)(F)F)(C3)C4)nc(N3CCO[C@@H](c4cnn(C)c4)C3)nc2n1 [Example 100, 7-methyl-2-((2S)-2-(1-methyl-1H-pyrazol-4-yl)-4-morpholinyl)-4-(3-(trifluoromethyl)bicyclo[1.1.1]pentan-1-yl)pyrido[2,3-d]pyrimidine]
500 to 3000	++++ (Emax>250)	Cc1nc2cc([C@H]3CCO[C@H](c4cnn(C)c4)C3)nc(-c3ccc(Cl)cc3F)c2nc1C (single isomer, unassigned) [Example 194]
50 to 500	+++ (Emax>150 and ≤250)	Cc1nc2nc(N3CCO[C@@H](c4cnn(C)c4)C3)nc([C@H]3C[C@@H](C(F)(F)F)C3)c2nc1C [Example 43, 6,7-dimethyl-2-((2S)-2-(1-methyl-1H-pyrazol-4-yl)-4-morpholinyl)-4-(cis-3-(trifluoromethyl)cyclobutyl)pteridine]
50 to 500	++++ (Emax>250)	Cc1ncc([C@H]2CN(c3nc(-c4ccc(Cl)cc4F)c4nc(C)c(C)nc4n3)CCO2)cn1 (single isomer, unassigned) [Example 24]
≤ 50	+++ (Emax>150 and ≤250)	Cc1nc2nc(N3CCO[C@@H](c4cnn(C)c4)C3)nc(-c3ccc(F)cc3F)c2nc1C [Example 31, 4-(2,4-difluorophenyl)-6,7-dimethyl-2-((2S)-2-(1-methyl-1H-pyrazol-4-yl)-4-morpholinyl)pteridine]
≤ 50	++++ (Emax>250)	Cc1cc([C@@H]2CN(c3nc(-c4ccc(Cl)cc4F)c4cc(C)c(C)nc4n3)CCO2)cnn1 (single isomer, unassigned) [Example 105]
≤ 50	+++ (Emax>150 and ≤250)	Cc1ccc(-c2nc([C@H]3CCO[C@@H](c4cnn(C)c4)C3)cc3nc(C)c(C)nc23)c(F)c1 (single isomer, unassigned) [Example 196]
≤ 50	++++ (Emax>250)	Cc1nc2cc(N3CCO[C@@H](c4cnn(C)c4)C3)nc(-c3ccc(Cl)cc3F)c2nc1C [Example 79, 5-(4-chloro-2-fluorophenyl)-2,3-dimethyl-7-((2S)-2-(1-methyl-1H-pyrazol-4-yl)-4-morpholinyl)pyrido[3,4-b]pyrazine]
≤ 50	++++ (Emax>250)	Cc1cc([C@@H]2CN(c3nc(-c4ccc(Cl)cc4F)c4ccc(C)nc4n3)CCO2)cnn1 [Example 259, (R)-4-(4-(4-chloro-2-fluorophenyl)-7-methylpyrido[2,3-d]pyrimidin-2-yl)-2-(6-methylpyridazin-4-yl)morpholine]
≤ 50	+++ (Emax>150 and ≤250)	Cc1nc2nc(N3CCO[C@@H](c4cnn(C)c4)C3)nc(C3CC4(C3)CC(F)(F)C4)c2nc1C [Example 46, 4-(6,6-difluorospiro[3.3]heptan-2-yl)-6,7-dimethyl-2-((2S)-2-(1-methyl-1H-pyrazol-4-yl)-4-morpholinyl)pteridine]

EC50 [nM]	hTREM2 Emax	Structure (SMILES)
≤ 50	+++ (Emax>150 and ≤250)	Cc1nc2nc(N3CCO[C@@H](c4cnn(C)c4)C3)nc(C34CC(C(F)(F)F)(C3)C4)c2nc1C [Example 63, 6,7-dimethyl-2-((2S)-2-(1-methyl-1H-pyrazol-4-yl)-4-morpholinyl)-4-(3-(trifluoromethyl)bicyclo[1.1.1]pentan-1-yl)pteridine]
≤ 50	+++ (Emax>150 and ≤250)	Cc1nc2nc([C@H]3CCO[C@@H](c4cnn(C)c4)C3)cc(-c3ccc(F)cc3F)c2nc1C (single isomer, unassigned) [Example 188]
500 to 3000	+ (Emax>45 and ≤100)	Cc1nc2nc(N3CCO[C@@H](c4cnn(C)c4)C3)nc(N3CCC[C@@H](F)C3)c2nc1C (single isomer, unassigned) [Example 69]
50 to 500	++++ (Emax>250)	Cc1nc2nc(N3CCO[C@H]([C@@H]4CCOC4)C3)nc(-c3ccc(F)cc3F)c2nc1C [Example 243, (R)-4-(4-(2,4-difluorophenyl)-6,7-dimethylpteridin-2-yl)-2-((R)-tetrahydrofuran-3-yl)morpholine]
≤ 50	++++ (Emax>250)	Cc1cc([C@H]2CN(c3nc(-c4ccc(Cl)cc4F)c4ccc(C)nc4n3)CCO2)cnn1 (single isomer, unassigned) [Example 86]
≤ 50	++++ (Emax>250)	Cc1nc2nc(N3CCOC(C4CCOC4)C3)nc(-c3ccc(Cl)cc3F)c2nc1C (stereo not drawn) [Example 26, 4-(4-chloro-2-fluorophenyl)-6,7-dimethyl-2-(2-(tetrahydro-3-furanyl)-4-morpholinyl)pteridine]
≤ 50	++++ (Emax>250)	Cc1nc2nc(N3CCO[C@@H](c4cnn(C)c4)C3)cc(-c3ccc(Cl)cc3F)c2nc1C [Example 160, 8-(4-chloro-2-fluorophenyl)-2,3-dimethyl-6-((2S)-2-(1-methyl-1H-pyrazol-4-yl)-4-morpholinyl)pyrido [2,3-b]pyrazine]
≤ 50	++++ (Emax>250)	Cc1ccc(-c2nc(N3CCO[C@@H](c4ccnc(C)c4)C3)nc3nc(C)ccc23)c(F)c1 [Example 96, 4-(2-fluoro-4-methylphenyl)-7-methyl-2-((2S)-2-(2-methyl-4-pyridinyl)-4-morpholinyl)pyrido[2,3-d]pyrimidine]
–	+++ (Emax>150 and ≤250)	Cc1nc2nc([C@H]3CCO[C@@H](c4cnn(C5CC5)c4)C3)nc(-c3ccc(Cl)cc3F)c2nc1C (single isomer, unassigned) [Example 181]
≤ 50	+++ (Emax>150 and ≤250)	Cc1ccc(-c2nc(N3CCO[C@@H](c4cnn(C5CC5)c4)C3)nc3nc(C)cnc23)c(F)c1 [Example 9, 2-((2S)-2-(1-cyclopropyl-1H-pyrazol-4-yl)-4-morpholinyl)-4-(2-fluoro-4-methylphenyl)-7-methylpteridine]
≤ 50	++++ (Emax>250)	Cc1ccc(-c2nc([C@H]3CCO[C@@H](c4cnn(C)c4)C3)nc3nc(C)c(C)nc23)c(F)c1 (single isomer, unassigned) [Example 183]
500 to 3000	+ (Emax>45 and ≤100)	C[C@H]1CN(c2cc3c(c(-c4ccc(Cl)cc4F)n2)CN(C)C3=O)CCO1 [Example 118, 4-(4-chloro-2-fluorophenyl)-2-methyl-6-((2S)-2-methyl-4-morpholinyl)-2,3-dihydro-1H-pyrrolo[3,4-c]pyridin-1-one]
≤ 50	+++ (Emax>150 and ≤250)	Cc1ncc([C@@H]2CN(c3nc(-c4ccc(C(F)(F)F)nc4)c4nc(C)c(C)nc4n3)CCO2)cn1 [Example 295, (R)-4-(6,7-dimethyl-4-(6-(trifluoromethyl)pyridin-3-yl)pteridin-2-yl)-2-(2-methylpyrimidin-5-yl)morpholine]
50 to 500	+ (Emax>45 and ≤100)	Cc1nc2nc(N3CCO[C@@H](c4cnn(C)c4)C3)nc(C3=CC[C@H](C(F)(F)F)CC3)c2nc1C (single isomer, unassigned) [Example 126]
500 to 3000	+ (Emax>45 and ≤100)	Cc1ccc2c(n1)nc(N1CCO[C@@H](c3cnn(C)c3)C1)nc2[C@H]1C[C@H](C(F)(F)F)C1 [Example 97, 7-methyl-2-((2S)-2-(1-methyl-1H-pyrazol-4-yl)-4-morpholinyl)-4-(trans-3-(trifluoromethyl)cyclobutyl)pyrido[2,3-d]pyrimidine]
≤ 50	+ (Emax>45 and ≤100)	Cc1ccc2c(n1)nc(N1CCO[C@@H](c3cnn(C4CC4)c3)C1)nc2[C@H]1CC[C@H](C(F)(F)F)CC1 [Example 145, 2-((2S)-2-(1-cyclopropyl-1H-pyrazol-4-yl)-4-morpholinyl)-7-methyl-4-(trans-4-(trifluoromethyl)cyclohexyl)pyrido [2,3-d]pyrimidine]
